Assay results as given in patent publication US10420836B2, “Methods of immunizing a subject and compositions related thereto” (priority 2015, dated 2019).
Like-named read-outs stand apart in the source and are kept apart here.

Key:
[1] = test system: influenza virus A/Udorn/1972 (H3N2); format: in vivo, mice; conditions: for survival: adjuvant co-administered intradermally with 1 μg HA A/Victoria/210/2009 subunit vaccine; for body weight loss after challenge / signs of disease after challenge: adjuvant with vaccine; for body weight loss after challenge: compared to the other vaccinated groups; for protective immune responses / protective immunity to influenza: used as adjuvant for intradermal influenza vaccination
[2] = test system: A/Victoria/210/2009 subunit influenza vaccine; format: in vivo, mice; conditions: after intradermal vaccination with A/Victoria/210/2009 plus adjuvant
caspase-1 = test: Preliminary cell-signaling data (inflammasome / caspase-1 activation)
[3] = test system: primary human keratinocytes; format: cell-based; conditions: primary human keratinocytes (unpublished)
[4] = Observation for adverse effects after adjuvanted skin vaccination; format: in vivo; conditions: low doses used for skin vaccination; four months post-adjuvanted vaccination
Excerpt: This modification may improve antigen presentation resulting in protective immunity. […] See Manoury. Proteases: essential actors in processing antigens and intracellular toll-like receptors. Frontiers in immunology 4, 299, (2013). Fullerene is considered as nanoparticle due to its structure that can recruit cells following skin immunization. The toxicity of fullerenes has been reported in Zhang et al., Endocytic mechanisms and toxicity of a functionalized fullerene in human cells. Toxicology letters 191, 149-157, (2009). […] Vaccine adjuvant and vaccine formulations of fullerene derivatives are reported in CN103495164.

Row | SMILES | survival ([1]; 4×LD50 A/Udorn/1972 challenge) [%] | body weight loss after challenge [1] | protective immune responses / protective immunity to influenza [1] | Serum IgG2a [2] | signs of disease after challenge [1] | longevity of immune responses ([1]; combined with vaccine, […]) | caspase-1 activation (caspase-1) | survival rate ([1]; at three different doses tested (11.9, 119 and 1190 nanomoles) with vaccine, infection with A/Udorn 1972) [%] | IL-1 beta and TNF-α production [3] | survival ([1]; […]) [%] | adverse effects [4]
1 | O=C(Nc1cc(C(F)(F)F)cc(C(F)(F)F)c1)c1cc(Cl)ccc1O [IMD 0354, N-(3,5-bis-trifluoromethyl-phenyl)-5-chloro-2-hydroxy-benzamide] | 100 | minimal body weight loss | improved protective immunity to influenza | increased |  |  |  |  |  |  | 
2 | CC(C)Cn1cnc2c(N)nc3ccccc3c21 [Imiquimod] |  | lowest body weight loss |  |  | fewer signs of disease | improved |  |  |  |  | 
3 | O=C1c2c(O)cccc2Cc2cccc(O)c21 [anthralin, 1,8-dihydroxy-9,10-dihydroanthracen-9-one] | 80 |  | induces protective immune responses |  | fewer signs of disease |  | not activated | ≥ 80 | large amounts |  | 
4 | c12c3c4c5c1c1c6c7c2c2c8c3c3c9c4c4c%10c5c5c1c1c6c6c%11c7c2c2c7c8c3c3c8c9c4c4c9c%10c5c5c1c1c6c6c%11c2c2c7c3c3c8c4c4c9c5c1c1c6c2c3c41 [fullerene] |  |  | improved protective immune responses |  |  |  |  |  |  | 80 | no adverse effects
